This note sets out measurements from paper PMC6017089, “Discovery of a Manduca sexta Allatotropin Antagonist from a Manduca sexta Allatotropin Receptor Homology Model” (Molecules : A Journal of Synthetic Chemistry and Natural …, 2018).

The target in assay [1] is T1, corpora allata (CA) of adult female M. sexta (Manduca sexta, UniProt F1CZQ1).
T1 sequence (F1CZQ1 1-457): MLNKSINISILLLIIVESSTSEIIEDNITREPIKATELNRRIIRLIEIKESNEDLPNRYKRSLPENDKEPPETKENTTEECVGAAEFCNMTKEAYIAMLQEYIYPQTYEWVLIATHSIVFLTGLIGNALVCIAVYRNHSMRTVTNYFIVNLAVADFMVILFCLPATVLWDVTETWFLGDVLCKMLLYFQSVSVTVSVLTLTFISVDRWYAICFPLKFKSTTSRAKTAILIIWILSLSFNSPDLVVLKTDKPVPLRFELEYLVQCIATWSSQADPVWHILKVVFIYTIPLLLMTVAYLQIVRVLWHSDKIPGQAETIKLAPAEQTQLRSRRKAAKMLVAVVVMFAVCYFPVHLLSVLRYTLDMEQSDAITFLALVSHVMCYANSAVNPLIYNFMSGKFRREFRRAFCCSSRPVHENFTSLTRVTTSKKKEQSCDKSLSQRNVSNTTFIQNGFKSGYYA
Nature of the assay: Stimulation of JH biosynthesis in vitro by corpora allata. Format: cell-based. Particulars: for Stimulation of JH Biosynthesis EC50 (95% CI) / EC50: pair of CA with corpora cardiaca from day 3 females, 3 h at 30 °C in medium 199 pH 7.2, total JH II + JH III by GC-MS/MS, 9–13 repeats per concentration, 95% CI in brackets; for Stimulation of JH Biosynthesis: Stimulation at 1 μM: peptide 1 μM, CA from day 3 females, 3 h at 30 °C, mean ± SEM, repeat number in brackets, versus control CA without peptide; for fold less potent than Manse-AT (EC50, stimulation of JH biosynthesis): ratio of EC50 values to Manse-AT. As to the method: (§1) On the day of adult emergence (day 0), females were marked and maintained in the wooden chamber until used. The assays for JH biosynthesis were performed using CA from day 3 females. A pair of CA with corpora cardiaca attached were incubated for 3 h at 30 °C in 100 µL of medium 199 (GIBCO) with Hanks’ salts, L-glutamine, 25 mM HEPES buffer (pH 7.2) and 2% Ficoll in the dark with gentle shaking. Compounds were dissolved in medium 199 for assay as described previously and used on the same day that the peptides were prepared. After incubation, 200 µl n-hexane containing 20 ng of citronellol as an internal standard was mixed with the incubation medium and the mixture was centrifuged at 2500× g for 5 min. The organic phases (upper layer) were removed and transferred to the analyzed vials. For M. sexta, it is known that JH II and JH III are predominantly made in adult (they contribute 99% of total JH, together). The change of total JH II and JH III titer was used to estimate the effects of JH biosynthesis in this study. The quantitative assay for JH II and JH III titer was determined by GC-MS/MS as described previously. The retention time of JH II and JH III was 11.16 min and 10.36 min, respectively. The quantification transition for JH II was 107→105.4 (collsion energy: 45 eV). Its confirmation transitions were 81→79.6 (collsion energy: 40 eV), 121→119 (collsion energy: 40 eV), 121→104.9 (collsion energy: 15 eV) and 121→92.9 (collsion energy: 10 eV), respectively. For JH III, the quantification transition was […] (collsion energy: 10 eV), the confirmation transitions were 81→79.1 (collsion energy: 5 eV), 94.9→67.1 (collsion energy: 10 eV), 120.9→93 (collsion energy: 10 eV) and 120.9→105.1 (collsion energy: 15 eV), respectively. Compounds were dissolved in medium 199 for assay and used on the same day that the peptides were prepared. Each data point on the dose-response figure represents replicate incubations of 9–13 experimental CA compared to control CA (i.e., no peptide added). EC50 (stimulator concentration50 defined as the concentration of stimulator that provokes a response halfway between the baseline and maximum response) values of Manse-AT and analogs were calculated from the dose-response curves.
(§2) Data presented as percentages were log-transformed before statistical analyses. Data were analysed using a one-way analysis of variance (ANOVA) with a Dunnett’s multiple comparison test as the post hoc determination of significance using Prism Graph Pad version 5.0 (GraphPad Software, San Diego, CA, USA). Dose-response curves were also prepared using the computer program GraphPad Prism. Values are expressed as mean ± standard errors (S.E.M.) with N indicating the number of samples measured.

In assay [2] the target is T2, corpora allata (CA) of adult female M. sexta stimulated with Manse-AT (Manduca sexta, UniProt F1CZQ1).
T2 sequence (F1CZQ1 1-457): T1 sequence (F1CZQ1 1-457)
Format: cell-based. As to the method: as §1
Antagonistic effects of Manse-AT antagonists were measured with the compound mixture solutions (varying concentrations of the antagonist added together with Manse-AT) compared with the stimulation effects of Manse-AT. Dose response curves of antagonist on the inhibition of JH stimulation of Manse-AT was obtained using different concentrations of antagonist mixed with 1 nM Manse-AT (Supplementary Materials, Figure S1). Each data point on the dose-response figure was calculated using the Formula (1). (RManse-AT − RMixture)/(RManse-AT − RControl) (1)
RManse-AT is the average JH biosynthesis rate of 1 nM Manse-AT, RMixture is the rate of mixture contained different concentration antagonist and 1 nM Manse-AT, RControl is the average rate of medium without any peptides.
as §2

[3] abbreviates: read-out: Antagonistic Effects on JH Biosynthesis IC50 (95% CI); antagonist at varying concentrations mixed with 1 nM Manse-AT; CA from day 3 females, 3 h at 30 °C; JH II + JH III by GC-MS/MS; 9–13 repeats per concentration; 95% CI in brackets.
Where [4] appears, read: antagonist at varying concentrations mixed with 1 nM Manse-AT; CA from day 3 females, 3 h at 30 °C; JH II + JH III by GC-MS/MS; 9–13 repeats per concentration; 95% CI in brackets.
The mark [5] stands for this setting: ratio of IC50 values to Manse-AT (10–13).

“And” between values parts separate entries of the source, which are not always exact repeats. Equal entries are not always repeated. “Also recorded” adds a separate entry of the source. Where two headings read alike, the source gives them in different places. Non-standard residues stand in square brackets, D forms with d. Residues, ends and D or L forms follow the SMILES beside them. No end group written: not given here. *: point of attachment. Phe(4-Cl) = N[C@@H](Cc1ccc(Cl)cc1)C(=O)O; Phe(4-Me) = Cc1ccc(C[C@H](N)C(=O)O)cc1; Ala(cPr) = N[C@@H](CC1CC1)C(=O)O; Isobutyryl = CC(C)C(=O)*

“TARGFa [Manse-AT (9–13), truncated analog of Manse-AT]”: in assay [1], the “Stimulation of JH Biosynthesis EC50 (95% CI)” value (“Stimulation … (95% CI)” for short) is “cannot be calculated; also recorded: No effect” and the “Stimulation of JH Biosynthesis: Stimulation at 1 μM” value (“Stimulation … at 1 μM” below) is listed as 10.6 ± 21.0 (11) %. As to `C[C@H](N)C(=O)N[C@@H](CCCNC(=N)N)C(=O)NCC(=O)N[C@@H](Cc1ccc(Cl)cc1)C(N)=O` [analog 12] (H-ARG[Phe(4-Cl)]-NH2), the IC50 in assay [2] (setting [3]) was found to be 9.4 nM. Same read-out and setting: the figure for `N=C(N)NCCC[C@H](NC(=O)CN)C(=O)NCC(=O)N[C@@H](Cc1ccccc1)C(N)=O` [analog 1] (H-GRGF-NH2) is 1.2 nM. Consider H-MMTARGF-NH2 [Manse-AT (7–13)], for which, in assay [1], the concentration giving a half-maximal response (EC50) is 180 nM and 228 nM; the “Stimulation … at 1 μM” value is 232.9% and 232.9 ± 33.7 (9) %; the “fold less potent than Manse-AT (EC50, stimulation of JH biosynthesis)” value came out at 200 fold.

Turning to “Ala-Ala-Gly-Phe-NH2 [analog 5, Manse-AT (10–13) analog, Arg replaced with Ala]”, the “Antagonistic Effects on JH Biosynthesis IC50 (95% CI)” value (“Antagonistic Effects … (95% CI)” for short) in assay [2] (setting [4]) is on record as “no antagonistic effect”.

For the compound “Arg-Gly-Phe-NH2 [Manse-AT (11–13), truncated tripeptide analog of Manse-AT]”, in assay [1], the “Stimulation … (95% CI)” value was “cannot be calculated; also recorded: No effect” and the “Stimulation … at 1 μM” value is 8.3 ± 16.4 (9) %. Further, the “Antagonistic Effects … (95% CI)” value in assay [2] (setting [4]) is recorded as “did not possess any antagonistic effect; also recorded: No effect”. With `CC(C)C[C@H](N)C(=O)N[C@@H](CCCNC(=N)N)C(=O)NCC(=O)N[C@@H](Cc1ccccc1)C(N)=O` [analog 2] (H-LRGF-NH2), the half-inhibitory concentration (IC50) in assay [2] (setting [3]) was found to be 35.4 nM.

`C[C@H](N)C(=O)N[C@@H](CCCNC(=N)N)C(=O)N[C@@H](C)C(=O)N[C@@H](Cc1ccccc1)C(N)=O` [analog 7] (H-ARAF-NH2): the half-maximal inhibitory concentration (IC50) in assay [2] (setting [3]) was determined as 17.5 nM. Regarding “Ala-Leu-Gly-Phe-NH2 [analog 6, Manse-AT (10–13) analog, Arg replaced with Leu]”, the “Antagonistic Effects … (95% CI)” value in assay [2] (setting [4]) was “no antagonistic effect”. For H-EMMTARGF-NH2 [Manse-AT (6–13)], in assay [1], the EC50 was determined as 18.4 nM; the “Stimulation … at 1 μM” value was 600% and 600.5 ± 98.5 (9) %; the “fold less potent than Manse-AT (EC50, stimulation of JH biosynthesis)” value is “about 20 fold”. “Ala-Arg-Gly-Ala-NH2 [analog 9, Manse-AT (10–13) analog, Phe replaced with Ala]”: the “Antagonistic Effects … (95% CI)” value in assay [2] (setting [4]) was “inactive; also recorded: No effect”. As to AMMTARGF-NH2 [Manse-AT (6–13) [Ala^1]], the “Stimulation of JH biosynthesis at 10 µM” value in assay [1] (concentration of 10 µM, adult female CA in vitro) was “completely inactive”. Further, in assay [1], the “Stimulation … (95% CI)” value is “No effect”. As for `C[C@H](N)C(=O)N[C@@H](CCCNC(=N)N)C(=O)NCC(=O)N[C@@H](Cc1ccccc1)C(N)=O` [Manse-AT (10–13)] (H-ARGF-NH2), in assay [1], the “Stimulation … (95% CI)” value is “cannot be calculated; also recorded: No effect” and the “Stimulation … at 1 μM” value is 8.1± 17.6 (13) %. In addition, in assay [2] (setting [3]), the IC50 turned out to be 0.9 nM. Turning to “GFKNVEMMTARGF-NH2 [Manse-AT, Manduca sexta allatotropin]”, in assay [1], the EC50 was found to be 0.9 nM and the “Stimulation … at 1 μM” value was 426.6 ± 86.3 (9) %.

For the compound `C[C@H](N)C(=O)N[C@@H](CCCNC(=N)N)C(=O)N[C@@H](CC1CC1)C(=O)N[C@@H](Cc1ccccc1)C(N)=O` [analog 8] (H-AR[Ala(cPr)]F-NH2), the “fold less active than the lead Manse-AT (10–13) (IC50, antagonistic effect)” value in assay [2] (setting [5]) is reported as around 1145 fold. Consider `C[C@H](N)C(=O)N[C@@H](CCCNC(=N)N)C(=O)NCC(=O)N[C@@H](Cc1ccc(O)cc1)C(N)=O` [analog 10] (H-ARGY-NH2), for which, in assay [2] (setting [3]), the IC50 amounted to 1 nM. As to H-MTARGF-NH2 [Manse-AT (8–13)], in assay [1], the EC50 is 2490 nM and the “Stimulation … at 1 μM” value is on record as 133.1 ± 22.3 (9) %. In the case of `Cc1ccc(C[C@H](NC(=O)CNC(=O)[C@H](CCCNC(=N)N)NC(=O)[C@H](C)N)C(N)=O)cc1` [analog 11] (H-ARG[Phe(4-Me)]-NH2), in assay [2] (setting [3]), the IC50 is 8.4 nM. Take `CC(C)C(=O)N[C@@H](CCCNC(=N)N)C(=O)NCC(=O)N[C@@H](Cc1ccccc1)C(N)=O` [analog 3] (Isobutyryl-Arg-Gly-Phe-NH2): the 50% inhibitory concentration (IC50) in assay [2] (antagonist at varying concentrations mixed with 1 nM Manse-AT; CA from day 3 females, 3 h at 30 °C; JH II + JH III by GC-MS/MS; 9–13 repeats per concentration; 95% CI in brackets; read-out: Antagonistic Effects on JH Biosynthesis IC50 (95% CI)) worked out at 26.1 nM. Also, the “fold less active than the lead Manse-AT (10–13) (IC50, antagonistic effect)” value in assay [2] (setting [5]) is reported as around 30 fold.
